According to patent US9561201B2, “Therapeutic compounds” (Fibrotech Therapeutics Pty Ltd, priority 2006, dated 2017):

How the values were obtained:
[1] = tested on: Neonatal rat cardiac fibroblasts (NCFs); test: NCF TGF-β collagen synthesis, 3H-proline incorporation (Example 6); type: cell-based
Procedure: Neonatal SD rat cardiac myocytes (NCMs) and fibroblasts (NCFs) were isolated from one-day-old pups with enzymatic digestion as described in detail previously. NCFs were seeded and maintained in high-glucose (25 mmol/L) Dulbecco's modified Eagle's medium (DMEM) (Invitrogen Mount Waverley, Vic, Australia) in the presence of 1% antibiotic/antimycotic (AB/AM) and 10% fetal bovine serum (FBS) (JRH biosciences, Kansas, USA). NCFs were used at passage 2 [31]. Purified NCMs were seeded (1000 cells/mm^2) in 6-well plates and then maintained in serum-free DMEM (Invitrogen, NY, USA) supplemented with insulin and transferrin as described previously (4). Bromodeoxyuridine was included for the first 3 days. 50 mmol/L KCl was added to the medium to prevent spontaneous contraction characteristic of the plated NCMs.
NCFs collagen synthesis assays were performed as described previously. Briefly, NCFs plated at a density of 50,000 cells/well in 12-well plate and incubated overnight. NCFs were then serum starved for 24 hours in high-glucose DMEM. […]
For collagen synthesis, 1 μCi of [^3H]-Proline was added to each well and incubated for further 48 hours before harvest. Cells were harvested by precipitation with 10% TCA on ice for 30 min, before solubilisation with 0.75 mL of 1 mol/L NaOH overnight at 4° C. The samples were then neutralized with 1 mol/L HCl and ^3H level were counted with 10 ml scintillation fluid on a beta-counter to determine [^3H]-proline incorporation.

[2] = tested on: neonatal SD rat cardiac fibroblasts; test: TGF-β-stimulated fibrosis (proline incorporation) in neonatal cardiac fibroblasts (Example 4); type: cell-based
Procedure: (§1) Matrix synthesis may be stimulated by both angiotensin II or transforming growth factor beta (TGF-β).
(§2) Neonatal SD rat cardiac fibroblasts (NCFs) were isolated from one-day-old pups with enzymatic digestion. NCFs were purified by percoll gradient and seeded with DMEM in the present of 1% antibiotic/antimycotic (AB/AM) and 10% fatal bovine serum (FBS). NCFs were then subcultured when they are about 80% confluence. The second passage of NCFs was used for the assays.
(§3) NCFs were seeded at 25,000 cells/well in 12-well plates and incubated at 37° C. and 5% CO2 overnight in DMEM with 1% AB/AM and 10% FBS. Cells were then washed with DMEM and then the media replaced with DMEM/F12 with 1% AB/AM, 0.5% Bovine Serum Albumin (BSA) and Vitamin C, before being incubated at 37° C. and 5% CO2 for 24 hours.
(§4) The effect of FT011 on TGF-β- or angiotensin II-stimulated fibrosis in the neonatal SD rat cardiac fibroblasts was investigated.

[3] = Pilot study (toxicity assessment), 2 weeks oral gavage; type: in vivo, Sprague-Dawley (SD) rats; settings: for ALT / Body weight / Plasma Creatinine / Plasma Urate: 2 weeks
Procedure: A total of twenty male Sprague-Dawley (SD) rats weighing 200-250 g were randomised to either FT011 (Fibrotech Therapeutics Pty Ltd, Melbourne, Australia) or Tranilast (Pharm Chemical, Shanghai Lansheng Corporation, China) at the dose of 50 mg, 100 mg, 200 mg and 400 mg/kg/day by gavage twice daily (n=2-3 per group). A control group of animals were gavaged with vehicle (1% carboxy methyl cellulose). The study was conducted for 2 weeks. Animals were bled daily at one, four, and eight hours after oral gavage to measure the plasma concentration. Serum was also collected to assess renal and liver function at the end of the study (plasma creatine and urate, ALT and bilirubin). Rats were individually housed in metabolic cages at the end of the study, habituated for 2 to 3 hours, and urine collected over 24 hours. Animals continued to have free access to tap water and standard laboratory chow during this period. The biochemistry tests performed at the department of pathology, St Vincent's hospital. Major organs including lung, heart, liver, spleen and kidney were harvested and immersed fix with 10% neutral buffered formalin and then embedded paraffin for subsequent light microscope examination.

[4] = tested on: neonatal SD rat cardiac fibroblasts; test: Angiotensin II-stimulated fibrosis (proline incorporation) in neonatal cardiac fibroblasts (Example 4); type: cell-based
Procedure: as §1, §2, §3, §4

[5] = tested on: rat mesangial cell line; test: TGF-β stimulated 3H-proline incorporation in mesangial cells (Example 5); type: cell-based; settings: for Mesangial Cell Assay TGF-β % reduction of TGF-β stimulation_proline inc.: 5 ng/mL TGF-β1, 44 h
[6] = tested on: STZ diabetic (mRen-2)27 rats; test: Diabetic (mRen-2)27 rats treated with FT011; type: in vivo; settings: for GFR: 16 weeks
Procedure: Forty six-week old female, heterozygous (mRen-2)27 rats (St. Vincent's Hospital Animal House, Melbourne, Australia) were assigned to receive either 55 mg/kg of STZ (Sigma, St. Louis, USA) diluted in 0.1 M citrate buffer, pH 4.5 or citrate buffer alone (non-diabetic) by tail vein injection following an overnight fast. […] Treatment commenced within 24 hours of STZ or citrate buffer injection.
Rats were individually housed in metabolic cages at 4, 8 12 and 16 weeks, habituated for 2 to 3 hours, and urine collected over 24 hours. […] After 24 hours in metabolic cages, an aliquot of urine (5 mL) was collected from the 24-hour urine sample and stored at −70° C. for subsequent analysis of albumin by radio-immunoassay, as previously performed [36]. Prior to sacrifice, the glomerular filtration rate (GFR) was determined by injecting a single shot of 99Tc-DTPA into the tail vein and sampling the blood after 43 minutes, as previously described [37].
Rats were anaesthetised (Nembutal 60 mg/kg body wt i.p. Boehringer-Ingelheim, Australia). […] Kidneys were excised, decapsulated, sliced transversely, half of the kidney snap frozen for tissue RNA assay and other half immersed fix with formalin and paraffin-embedded for subsequent light microscopic evaluation.
Histopathological changes in kidney and heart were assessed in a masked protocol.
In 4 μm kidney sections stained with PAS, 150 to 200 glomeruli from rats were examined in a masked protocol. […] A glomerulosclerotic index (GSI) was then calculated using the Formula (4):
To assess the tubulointerstitial fibrosis in kidney sections were stained with modified Masson's trichrome. Briefly, 5 random non-overlapping fields from 10 rats per group were captured and digitised using a BX50 microscope attached to a Fujix HC5000 digital camera. Digital images were then loaded onto a Pentium III IBM computer as described as above. An area of red in heart and blue in kidney on picrosirius red and trichrome-stained section, respectively, were selected for its color range and the proportional area of tissue with this range of color was then quantified. Calculation of the proportional area stained red and blue (matrix) was then determined using image analysis (AIS, Analytical imaging Station Version 6.0, Ontario, Canada) [37, 39].

[7] = diabetic rats, 100 mg/kg bid gavage

## C#CCOc1ccc(/C=C/C(=O)Nc2ccccc2C(=O)O)cc1OC [Analogue 11]
[1]; @ 30 μM
  NCF TGF-β Collagen Synthesis: 32% @ 30 μM
[1]; @ 100 μM
  NCF TGF-β Collagen Synthesis: 87% @ 100 μM
[2]
  TGF-β-stimulated fibrosis (proline incorporation): inhibited
[3]; 50 mg/kg/day gavage
  ALT: 41 ± 1
  Body weight: 313 ± 24 Gram
  Plasma Creatinine: 38 ± 2 µmol/L
  Plasma Urate: <0.09 mmol/L
[3]; 100 mg/kg/day gavage
  ALT: 44 ± 2
  Body weight: 308 ± 22 Gram
  Plasma Creatinine: 39 ± 0.5 µmol/L
  Plasma Urate: <0.09 mmol/L
[3]; 200 mg/kg/day gavage
  ALT: 36 ± 0.5
  Body weight: 301 ± 8 Gram
  Plasma Creatinine: 37 ± 0.6 µmol/L
  Plasma Urate: <0.09 mmol/L
[3]; 400 mg/kg/day gavage
  ALT: 32 ± 4.4
  Body weight: 264 ± 29 Gram
  Plasma Creatinine: 36 ± 3.9 µmol/L
  Plasma Urate: <0.09 mmol/L
[3]; following gavage, 50-400 mg/kg/day
  level of FT011 measured in plasma: increased in a dose dependent manner
[3]; rats treated with FT011, 24 h urine
  level of FT011 measured in urine: significant level
[4]
  angiotensin II-stimulated fibrosis (proline incorporation): inhibited
[5]; @ 3 μM
  Mesangial Cell Assay TGF-β % reduction of TGF-β stimulation_proline inc.: 15% @ 3
[5]; @ 10 μM
  Mesangial Cell Assay TGF-β % reduction of TGF-β stimulation_proline inc.: 20-50% @ 10
[5]; @ 30 μM
  Mesangial Cell Assay TGF-β % reduction of TGF-β stimulation_proline inc.: 50-75% @ 30
[5]; @ 100 μM
  Mesangial Cell Assay TGF-β % reduction of TGF-β stimulation_proline inc.: 60-100% @ 100
[5]; inhibition ranked against tranilast (T) or FT11
  Collagen synthesis: >T
[6]; diabetic rats + FT011 100 mg/kg bid gavage
  GFR: 5.90 ± 0.20 mL/min
[6]; [7]
  extent of glomerulosclerosis (PAS-stained sections): reduction
  rise in albuminuria: significantly attenuated
  tubular (tubulointerstitial) fibrosis (trichrome-stained sections): reduction
[6]; non-diabetic control rats + FT011 100 mg/kg bid gavage
  GFR: 3.63 ± 0.08 mL/min
